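96-well plates; 48 h exposure; 5 concentrations. Endpoints by linear interpolation between flanking doses. Not reached: highest tested concentration assigned. GI50 = concentration required for 50% inhibition of growth. TGI denotes the concentration required for complete inhibition of growth.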
Key:
Test in all cases: inhibition of tumour cell growth, NCI panel, 48 h
A498 renal = system: A498 renal
KM12 colon = system: KM12 colon
MALME-3M melanoma = system: MALME-3M melanoma
MDA-MB-435 = system: MDA-MB-435
OVCAR-3 ovarian = system: OVCAR-3 ovarian
RPMI-8226 leukemia = system: RPMI-8226 leukemia
SF-295 CNS = system: SF-295 CNS
SK-MEL-2 melanoma = system: SK-MEL-2 melanoma

Structure (SMILES) | GI50 (A498 renal) [µM] | TGI (A498 renal) [µM] | GI50 (KM12 colon) [µM] | TGI (KM12 colon) [µM] | GI50 (MALME-3M melanoma) [µM] | TGI (MALME-3M melanoma) [µM] | GI50 (MDA-MB-435) [µM] | TGI (MDA-MB-435) [µM] | GI50 (OVCAR-3 ovarian) [µM] | TGI (OVCAR-3 ovarian) [µM] | GI50 (RPMI-8226 leukemia) [µM] | TGI (RPMI-8226 leukemia) [µM] | GI50 (SF-295 CNS) [µM] | TGI (SF-295 CNS) [µM] | GI50 (SK-MEL-2 melanoma) [µM] | TGI (SK-MEL-2 melanoma) [µM]
O=C(COc1ccc(OCC(=O)N2C(=O)CN(c3ccccc3)C2=S)cc1)N1C(=O)CN(c2ccccc2)C1=S | > 25 | > 100 | > 25 | > 100 | 36.7 | > 100 | > 25 | > 100 | > 25 | > 100 | > 25 | > 100 | > 25 | > 100 | > 25 | > 100
CCOC(=O)/C(C#N)=C1\SS/C(=C(/C#N)C(=O)OCC)S1 | 63.9 | > 100 | 20.1 | 41.3 | 11.6 | 27.4 | 17.1 | 33.1 | 14.5 | 28.8 | 19.9 | 73.5 | > 100 | > 100 | 18.7 | 40.2
C(=Nc1cnc2ccccc2c1)c1ccc2ccccc2n1 | – | > 100 | – | > 100 | – | > 100 | – | > 100 | – | > 100 | – | > 100 | – | > 100 | – | > 100
O=C(/C=C/C(Cl)(Cl)Cl)Nc1ccc(Cl)cc1 | – | 28.8 | – | 6.07 | – | 18.9 | – | 12.4 | – | 17.3 | – | 3.85 | – | 28.8 | – | 18.1
COc1cc(/C=C/C(=O)N2CCC=CC2=O)cc(OC)c1OC | 14.9 | 29.4 | 3.18 | 12.8 | 1.97 | 3.97 | 2.21 | 6.05 | 3.34 | 11.9 | 1.5 | 4.81 | 6.37 | 21.1 | 2.53 | 7.09
O=C(O)c1c(Cl)c(Cl)c(Cl)c(Cl)c1C(=O)Nc1ccc2cn[nH]c2c1 | – | > 100 | – | > 100 | – | > 100 | – | > 100 | – | > 100 | – | > 100 | – | > 100 | – | > 100
C/C(=N/O)c1ccc2c(c1)/C(=N/O)c1ccccc1-2 | 34.9 | > 100 | 18.1 | 35.4 | 21.9 | 46 | 18.7 | 39.4 | 25.5 | 57.7 | 22.5 | 48.8 | 22.6 | 50.4 | 23.1 | 48

From PubChem BioAssay (NCI)
